Test results: US7115574B2, “System and method for support legacy operating system booting in a legacy-free system” (priority 2001, dated 2006)

Legend:
[1] = tested on: histamine-induced blue weal formation; test: Sparrow/Wilhelm histamine-induced blue weal assay; assay type: in vivo, New Zealand white rabbits; conditions: for Result (relative intensity of blue weals, experimental vs control): scored 30 minutes after histamine
From the text: This model relies on the principal that localized, subcutaneous injections of histamine will result in a localized increase in capillary permeability. When the test animal has been pretreated with blue dye intravenously, the localized histamine injections will elicit blue-colored “weals” around the injection site. Thus, by preadministration of an effective anti-inflammatory agent the blue color of the histamine-induced weals will be much less pronounced, with the amount of color reduction being dependent on the relative amount and/or potency of the anti-inflammatory agent used.
Non-moulting New Zealand white rabbits were used for the Sparrow/Wilhelm assay. The skin of the rabbits back was closely clipped 1-2 days previous to the experiment, but not depilated, and the rabbits were kept warm until tested. […] Control rabbits received sham injections. Fifteen minutes following injection of the agent or sham, the rabbits received approximately 30 mg/kg of Pontamine blue dye as a 2.5% solution in 0.45% saline, into an exposed vein. Immediately following dye injections, histamine was injected intradermally in a 0.10 ml volume (1.25 mg histamine 0.1 ml volume) at several sites on each side of the spine. In all, one vertical row of six injections were made on each side of the spine. The relative intensity of the resultant blue weals were scored by an independent observer 30 minutes after histamine injection.

[2] = tested on: carrageenan-induced swelling in rat paws; test: Rat paw edema test (carrageenan); assay type: in vivo, Sprague-Dawley rats; conditions: 100 mg/kg intraperitoneal, rats
Procedure: A second in vivo bioassay for anti-inflammatory activity was conducted in which the action of the tripeptide (SEQ ID NO: 1) was compared to that of hydrocortisone. In this assay, the two agents were given at similar doses and tested for their independent ability to inhibit carrageenan-induced swelling in rat paws. This assay, the rat paw edema test, was conducted generally as it is typically performed in the art, for example, as described by Winter et al. (1962), Proc. Soc. Exp. Biol. Med., 111:544 or in U.S. Pat. No. 4,150,137.
Briefly, the assay was performed as follows. Each of twenty-four male Sprague-Dawley rats was assigned to one of four groups: Tripeptide treatment and controls (matched according to body weight and initial paw volume), hydrocortisone treatment and matched controls. The volume of the right rear paw of the test and control animals was determined using standard procedures and a mercury displacement volumetric technique. […] One hour later 0.5 ml of 1% lambda carrageenan in saline solution was injected into the right rear paw of the animals and the paw volume was again recorded (baseline measure). For comparison of the effects of the two treatments, paw volume of experimental animals measured at hourly intervals was expressed as a percentage of the volume change of their respective matched controls.

[3] = tested on: inflammation induced in the ear by picryl chloride application; test: Picryl chloride-induced ear swelling; assay type: in vivo, BALB/C mice; conditions: for % Inhibition 3 h: 3 h after picryl chloride; for % Inhibition 6 h: 6 h after picryl chloride
Procedure: Hiltz, M. E., Catania, A., Lipton, J. M., Anti-Inflammatory Activity of aα-MSH (11-13) Analogs: Influence of Alteration in Stereochemistry, 12 Peptides 767 (1981). […] Female BALB/C mice (Simonsen Laboratories), 7 weeks old, were housed at 23-25° C. in groups of no more than 5 per cage [28 cm (L)×18 cm (W)×13 cm (H)]. They were allowed to acclimatize to standard lighting and temperature conditions for at least 1 week, with food and water available ad lib, before the experiment began. Five to ten animals were randomly assigned to each treatment group each test day, and all experiments were repeated at least twice to confirm reproducibility. To reduce error due to slight differences in responses to the irritant of animals from different shipments, tests of each agent were performed as separate experiments in which experimental and control animals were drawn from the same shipment.
In the experiments each animal was anesthetized with 1 mg of pentobarbital sodium solution ([…], Nembutal, Abbott Laboratories, Abbott park, Ill.). Baseline ear thickness was measured for both ears with a spring-loaded micrometer (Swiss Precision Instruments, Los Angeles, Calif.). Ear thickness was expressed in units of 10^−3 cm; the average thickness of unstimulated ears was approximately 25-30×10^−3 cm. After baseline measurements were taken, one of six solutions was injected IP. […] The doses of the tripeptides were 10 μg (2.6×.10^−8 M), 20 μg (5.2×.10^−8 M), 40 μg (1.04×.10^−7 M), and 80 μg (2.08×.10^−7 M). Immediately after saline or α-MSH injection, a micropipette was used to coat both sides of each ear with 10 μl […] of a 0.5% picryl chloride (Polysciences, Warrington, Pa.) solution in acetone.
Ear thickness was remeasured 3 and 6 h after picryl chloride application. Swelling was determined by subtracting baseline thickness from the measurements for each ear at 3 and 6 h. The differences for both ears were then averaged for the final analysis.
Repeated-measure ANOVA techniques were used to determine if there was an overall difference among group data for each peptide tested in separate experiments. In those cases in which the ANOVA yielded significant results, Dunnett's test was then used to compare the effects of peptide doses with control (saline) data for each of the two time periods, 3 and 6 h.

[4] = Lipton and Catania, Immunol. Today 1997; cited from earlier work

| Substance | Result (relative intensity of blue weals, experimental vs control) ([1]; 0.625 ug/kg protected tripeptide intravenously) | Result (relative intensity of blue weals, experimental vs control) ([1]; 1.25 ug/kg protected tripeptide intravenously) | Result (relative intensity of blue weals, experimental vs control) ([1]; 5 ug/kg protected tripeptide intravenously) | Result (relative intensity of blue weals, experimental vs control) ([1]; 10 ug/kg protected tripeptide intravenously) | lowest intravenous dose giving appreciable reduction in histamine-induced blue weal formation ([1]; rabbits, intravenous) | anti-inflammatory activity (inhibition of paw edema) ([2]; between 1 and 4 hours) | decrease in paw inflammation ([2]; first hour after carrageenan injection) | % Inhibition 3 h ([3]; 10 μg IP) | % Inhibition 6 h ([3]; 10 μg IP) | % Inhibition 3 h ([3]; 20 μg IP) | % Inhibition 6 h ([3]; 20 μg IP) | % Inhibition 3 h ([3]; 40 μg IP) | % Inhibition 6 h ([3]; 40 μg IP) | % Inhibition 3 h ([3]; 80 μg IP) | % Inhibition 6 h ([3]; 80 μg IP) | overall effect on inflammation (ANOVA) ([3]; 10-80 μg IP, 3 and 6 h) | toxicity [4] |
| --- | --- | --- | --- | --- | --- | --- | --- | --- | --- | --- | --- | --- | --- | --- | --- | --- | --- |
| Ac-Lys-Pro-Val-NH2 [α-MSH(11-13)] | No difference | E lighter than C | E lighter than C | E lighter than C | 1.25 µg/kg | nearly identical anti-inflammatory activity | no such reduction was observed | 26% | 25% | 21% | 19% | 33% | 26% | 50% | 42% | inhibited acute inflammation |  |
| SYSMEHFRWGKPV [α-MSH(1-13)] |  |  |  |  |  |  |  |  |  |  |  |  |  |  |  |  | very low toxicity |
